Paper PMC5674860, “A novel, highly efficient β-glucosidase with a cellulose-binding domain: characterization and properties of native and recombinant proteins” (Biotechnology for Biofuels, 2017)

How the values were obtained:
Assay type in all cases: biochemical
BGL-2T* [1] = molecular target: T1, BGL-2T* (Talaromyces amestolkiae, UniProt A0A186NAE7); experiment: glucose release (Glucose-TR kit), Lineweaver-Burk; conditions: 100 mM sodium acetate pH 4, optimal temperature (70 °C), BSA; read-out: K m (mM) / BGL-2T*
T1 construct: gene bgl2; recombinant truncated form lacking linker and CBD; stop codon in retained third intron; pPIC9, Pichia pastoris KM71, secreted; monomer
T1 sequence (A0A186NAE7 1-700 limits assumed): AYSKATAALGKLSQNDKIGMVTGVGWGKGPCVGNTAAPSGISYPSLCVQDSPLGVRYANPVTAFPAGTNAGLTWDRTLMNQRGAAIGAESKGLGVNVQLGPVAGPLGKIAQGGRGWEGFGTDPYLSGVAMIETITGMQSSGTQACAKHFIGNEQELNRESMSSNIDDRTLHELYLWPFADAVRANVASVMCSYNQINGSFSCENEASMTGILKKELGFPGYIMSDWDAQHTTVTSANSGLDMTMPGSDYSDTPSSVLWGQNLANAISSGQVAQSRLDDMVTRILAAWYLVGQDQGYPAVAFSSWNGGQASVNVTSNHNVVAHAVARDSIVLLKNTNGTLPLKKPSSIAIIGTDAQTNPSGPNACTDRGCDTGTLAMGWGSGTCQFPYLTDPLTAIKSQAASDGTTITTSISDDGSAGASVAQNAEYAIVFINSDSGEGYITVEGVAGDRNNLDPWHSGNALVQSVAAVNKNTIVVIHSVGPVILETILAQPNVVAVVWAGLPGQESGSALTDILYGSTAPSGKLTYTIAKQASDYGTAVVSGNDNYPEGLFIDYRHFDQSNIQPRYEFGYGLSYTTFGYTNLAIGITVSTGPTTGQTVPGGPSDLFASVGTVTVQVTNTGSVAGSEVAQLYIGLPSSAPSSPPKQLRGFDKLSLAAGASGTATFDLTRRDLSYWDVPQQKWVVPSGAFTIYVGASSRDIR
From the text: glucose release (Glucose-TR kit), Lineweaver-Burk on BGL-2T*

BGL-2T* [2] = molecular target: T1, BGL-2T*; experiment: p-nitrophenol release at […] nm, Lineweaver-Burk; conditions: acetate buffer, optimal pH (3-4) and temperature (70 °C), BSA; read-out: K m (mM) / BGL-2T*
BGL-2T* [3] = molecular target: T1, BGL-2T*; experiment: o-nitrophenol release, Lineweaver-Burk; conditions: acetate buffer, optimal pH (3-4) and temperature (70 °C), BSA; read-out: K m (mM) / BGL-2T*
From the text: o-nitrophenol release, Lineweaver-Burk on BGL-2T*

| SMILES | Km (BGL-2T* [1]) [mM] | other results |
| --- | --- | --- |
| OC[C@H]1O[C@@H](O[C@H]2[C@H](O)[C@@H](O)[C@H](O[C@H]3[C@H](O)[C@@H](O)C(O)O[C@@H]3CO)O[C@@H]2CO)[C@H](O)[C@@H](O)[C@@H]1O (some centres unmarked) [Cellotriose] | 1.42 ± 0.06 |  |
| O=[N+]([O-])c1ccc(O[C@@H]2O[C@H](CO)[C@@H](O)[C@H](O)[C@H]2O)cc1 [pNPG, p-nitrophenyl-β-D-glucopyranoside] |  | Km (BGL-2T* [2]): 0.34 ± 0.02 mM |
| O=[N+]([O-])c1ccccc1O[C@@H]1O[C@H](CO)[C@@H](O)[C@H](O)[C@H]1O [oNPG, o-nitrophenyl-β-D-glucopyranoside] |  | Km (BGL-2T* [3]): 0.67 ± 0.04 mM |
| OC[C@H]1O[C@@H](O[C@H]2[C@H](O)[C@@H](O)[C@H](O[C@H]3[C@H](O)[C@@H](O)[C@H](O[C@H]4[C@H](O)[C@@H](O)[C@H](O[C@H]5[C@H](O)[C@@H](O)C(O)O[C@@H]5CO)O[C@@H]4CO)O[C@@H]3CO)O[C@@H]2CO)[C@H](O)[C@@H](O)[C@@H]1O (some centres unmarked) [Cellopentaose] | 0.68 ± 0.01 |  |
| OC[C@H]1O[C@@H](O[C@H]2[C@H](O)[C@@H](O)[C@H](O[C@H]3[C@H](O)[C@@H](O)[C@H](O[C@H]4[C@H](O)[C@@H](O)C(O)O[C@@H]4CO)O[C@@H]3CO)O[C@@H]2CO)[C@H](O)[C@@H](O)[C@@H]1O (some centres unmarked) [Cellotetraose] | 0.49 ± 0.03 |  |
